Measurements taken from the CombiSolv-Exp solvation set (Vermeire and Green 2021).
One block for each compound: values may come before it.

Assay: solvent given as SMILES
[1] = in CCCCCCCCC=CCCCCCCCC(=O)OCC(COC(=O)CCCCCCCC=CCCCCCCCC)OC(=O)CCCCCCCC=CCCCCCCCC

solvation free energy, 298 K (in CCCCCCCC): -4.87 kcal/mol
solvation free energy, 298 K (in CCCCCCCCCC): -4.81 kcal/mol
SMILES: CCC(C)C(C)O (centres undefined)

solvation free energy, 298 K (in O): -2.73 kcal/mol
SMILES: CSc1ccccc1

SMILES: C=CC(C)C
solvation free energy, 298 K (in CC(=O)N(C)C): -2.13 kcal/mol
solvation free energy, 298 K (in CC(C)CC(C)(C)C): -2.87 kcal/mol
solvation free energy, 298 K (in CCC(C)=O): -2.71 kcal/mol
solvation free energy, 298 K (in CCCCCCC): -2.96 kcal/mol
solvation free energy, 298 K (in CCCCCCCC): -2.92 kcal/mol
solvation free energy, 298 K (in CCCCO): -2.5 kcal/mol
solvation free energy, 298 K (in CCNC(C)=O): -2.26 kcal/mol
solvation free energy, 298 K (in CCOC(C)=O): -2.74 kcal/mol
solvation free energy, 298 K (in CN1CCCC1=O): -2.03 kcal/mol
solvation free energy, 298 K (in CN(C)C=O): -2.09 kcal/mol
solvation free energy, 298 K (in CNC(C)=O): -2.14 kcal/mol
solvation free energy, 298 K (in CNC=O): -1.75 kcal/mol
solvation free energy, 298 K (in Cc1ccc(C)cc1): -3.31 kcal/mol
solvation free energy, 298 K (in ClCCCl): -2.71 kcal/mol
solvation free energy, 298 K (in O): 1.84 kcal/mol
solvation free energy, 298 K (in O=C1CCCCC1): -2.61 kcal/mol

SMILES: C=COC(C)=O
solvation free energy, 298 K (in CC(C)=O): -4.46 kcal/mol
solvation free energy, 298 K (in CCN(CC)C(C)=O): -4.2 kcal/mol
solvation free energy, 298 K (in CCNC(C)=O): -3.83 kcal/mol
solvation free energy, 298 K (in CCNC=O): -3.92 kcal/mol
solvation free energy, 298 K (in CN1CCCC1=O): -4.16 kcal/mol
solvation free energy, 298 K (in O): -2.67 kcal/mol
solvation free energy, 298 K (in O=CN1CCOCC1): -3.98 kcal/mol

solvation free energy, 298 K (in O): -11.6 kcal/mol
SMILES: CN(C)CCC(c1ccc(Br)cc1)c1ccccn1 (centres undefined)

solvation free energy, 298 K (in O): -13.3 kcal/mol
SMILES: Cc1cc(=O)n(-c2ccccc2)n1C

SMILES: O=C(O)c1cc([N+](=O)[O-])ccc1Cl
solvation free energy, 298 K (in C1CCOC1): -13.6 kcal/mol
solvation free energy, 298 K (in CC(C)(C)O): -13.1 kcal/mol
solvation free energy, 298 K (in CC(C)CCO): -12.8 kcal/mol
solvation free energy, 298 K (in CC(C)CO): -12.7 kcal/mol
solvation free energy, 298 K (in CC(C)O): -13.1 kcal/mol
solvation free energy, 298 K (in CC(C)OC(C)C): -12 kcal/mol
solvation free energy, 298 K (in CCC(C)O): -12.9 kcal/mol
solvation free energy, 298 K (in CCCC(C)O): -12.8 kcal/mol
solvation free energy, 298 K (in CCCCCCCCCCO): -12.4 kcal/mol
solvation free energy, 298 K (in CCCCCCCCO): -12.6 kcal/mol
solvation free energy, 298 K (in CCCCCCCO): -12.6 kcal/mol
solvation free energy, 298 K (in CCCCCCO): -12.6 kcal/mol
solvation free energy, 298 K (in CCCCCO): -12.8 kcal/mol
solvation free energy, 298 K (in CCCCO): -12.9 kcal/mol
solvation free energy, 298 K (in CCCCOC(C)=O): -12.4 kcal/mol
solvation free energy, 298 K (in CCCO): -13 kcal/mol
solvation free energy, 298 K (in CCCOC(C)=O): -12.6 kcal/mol
solvation free energy, 298 K (in CCO): -13.2 kcal/mol
solvation free energy, 298 K (in CCOC(C)=O): -12.8 kcal/mol
solvation free energy, 298 K (in CCOCC): -12.8 kcal/mol
solvation free energy, 298 K (in COC(C)=O): -12.9 kcal/mol
solvation free energy, 298 K (in O): -9.48 kcal/mol

SMILES: Oc1ccc(Cl)cc1Cl
solvation free energy, 298 K (in CCCCCC): -6.8 kcal/mol
solvation free energy, 298 K (in CCCCCCC): -6.85 kcal/mol
solvation free energy, 298 K (in CCCCCCCC): -6.82 kcal/mol
solvation free energy, 298 K [1]: -7.49 kcal/mol
solvation free energy, 298 K (in CCCCCCCCCC): -6.79 kcal/mol
solvation free energy, 298 K (in Cc1ccc(C)cc1): -7.58 kcal/mol
solvation free energy, 298 K (in Cc1cccc(C)c1): -7.56 kcal/mol
solvation free energy, 298 K (in Cc1ccccc1C): -7.64 kcal/mol
solvation free energy, 298 K (in O): -4.98 kcal/mol

solvation free energy, 298 K (in O): -3.93 kcal/mol
SMILES: Cc1ccccc1C=O

SMILES: CCCCC1CCCCC1
solvation free energy, 298 K (in CCC(C)=O): -5.97 kcal/mol
solvation free energy, 298 K (in CCO): -5.65 kcal/mol
solvation free energy, 298 K (in CN1CCCC1=O): -5.09 kcal/mol
solvation free energy, 298 K (in O): 1.96 kcal/mol
solvation free energy, 298 K (in O=Cc1ccco1): -4.97 kcal/mol
solvation free energy, 298 K (in OCCO): -2.38 kcal/mol
solvation free energy, 298 K (in OCCOCCO): -3.78 kcal/mol

solvation free energy, 298 K (in CCCCCC): -6.05 kcal/mol
solvation free energy, 298 K (in CCCCCCCCCCCCCCCC): -6.04 kcal/mol
solvation free energy, 298 K (in O): -4.58 kcal/mol
SMILES: CC(=O)c1ccccc1

SMILES: Clc1cccc2c1Oc1ccccc1O2
solvation free energy, 298 K (in O): -3.52 kcal/mol

solvation free energy, 298 K (in O): -0.5 kcal/mol
SMILES: C=C(CCC=C(C)C)C1CC=C(C)CC1 (centres undefined)

SMILES: CCCCCOC(=O)c1ccccc1C(=O)OCCCCC
solvation free energy, 298 K (in O): -6.96 kcal/mol

solvation free energy, 298 K (in O): -4.1 kcal/mol
SMILES: COC(=O)C1CC1

SMILES: C=C(Cl)Cl
solvation free energy, 298 K (in CCO): -3.25 kcal/mol
solvation free energy, 298 K (in CO): -2.95 kcal/mol
solvation free energy, 298 K (in O): 0.22 kcal/mol

solvation free energy, 298 K (in O): -4 kcal/mol
SMILES: C=C(C)C1CC=C(C)C(OC(C)=O)C1 (centres undefined)

solvation free energy, 298 K (in O): -18.2 kcal/mol
SMILES: Nc1ccc(S(=O)(=O)Nc2nccs2)cc1

SMILES: Oc1ccccc1F
solvation free energy, 298 K (in CC(C)CC(C)(C)C): -4.58 kcal/mol
solvation free energy, 298 K (in CCCCCC): -4.69 kcal/mol
solvation free energy, 298 K (in CCCCCCC): -4.7 kcal/mol
solvation free energy, 298 K (in CCCCCCCC): -4.52 kcal/mol
solvation free energy, 298 K (in CCCCCCCCCC): -4.58 kcal/mol
solvation free energy, 298 K (in Cc1ccc(C)cc1): -5.86 kcal/mol
solvation free energy, 298 K (in Cc1cccc(C)c1): -5.89 kcal/mol
solvation free energy, 298 K (in Cc1ccccc1C): -5.96 kcal/mol
solvation free energy, 298 K (in O): -5.29 kcal/mol

solvation free energy, 298 K (in CCCCCCC): -5.42 kcal/mol
solvation free energy, 298 K (in CCCCO): -5.8 kcal/mol
solvation free energy, 298 K (in CO): -5.85 kcal/mol
solvation free energy, 298 K (in O): -3.04 kcal/mol
SMILES: CCCCC(=O)CC

SMILES: CC(=O)CC(C)C
solvation free energy, 298 K (in C1COCCO1): -5.32 kcal/mol
solvation free energy, 298 K (in CC(=O)N(C)C): -5.24 kcal/mol
solvation free energy, 298 K (in CCCCCCCC): -4.34 kcal/mol
solvation free energy, 298 K (in CCCCN(C=O)CCCC): -5.03 kcal/mol
solvation free energy, 298 K (in CCOP(=O)(OCC)OCC): -4.94 kcal/mol
solvation free energy, 298 K (in CN1CCCC1=O): -5.14 kcal/mol
solvation free energy, 298 K (in CN1CCCCC1=O): -5.12 kcal/mol
solvation free energy, 298 K (in CN1CCN(C)C1=O): -4.91 kcal/mol
solvation free energy, 298 K (in CNC(C)=O): -4.82 kcal/mol
solvation free energy, 298 K (in NC=O): -4.19 kcal/mol
solvation free energy, 298 K (in O): -3.06 kcal/mol
solvation free energy, 298 K (in O=CN1CCOCC1): -4.62 kcal/mol
solvation free energy, 298 K (in OCCOCCO): -4.21 kcal/mol

solvation free energy, 298 K (in O): -6.07 kcal/mol
SMILES: Cc1ccc(CN)cc1

SMILES: Nc1ccccc1Cl
solvation free energy, 298 K (in O): -4.91 kcal/mol

solvation free energy, 298 K (in O): -6.79 kcal/mol
SMILES: OCCc1ccccc1

SMILES: CCOP(=S)(OCC)Oc1ccc([N+](=O)[O-])cc1
solvation free energy, 298 K (in O): -6.74 kcal/mol

solvation free energy, 298 K (in O): -4.78 kcal/mol
SMILES: c1cc[nH]c1

solvation free energy, 298 K (in O): -8.68 kcal/mol
SMILES: O=C(O)CCCCc1ccccc1

SMILES: ClC1C(Cl)C(Cl)C(Cl)C(Cl)C1Cl (centres undefined)
solvation free energy, 298 K [1]: -11.2 kcal/mol
solvation free energy, 298 K (in CCCCCCCCO): -10.9 kcal/mol

SMILES: Oc1ccccc1O
solvation free energy, 298 K (in CCCCCC): -5.88 kcal/mol
solvation free energy, 298 K (in CCCCCCCC): -6.04 kcal/mol
solvation free energy, 298 K (in Cc1ccc(C)cc1): -7.95 kcal/mol
solvation free energy, 298 K (in Cc1cccc(C)c1): -7.97 kcal/mol
solvation free energy, 298 K (in Cc1ccccc1C): -8.02 kcal/mol
solvation free energy, 298 K (in O): -9.82 kcal/mol
